# Assay: phase 1 first-in-human trial, safety and tolerability
# Assay type: in vivo
# Experimental: Anle138b was studied in a single-centre, double-blind, randomised, placebo-controlled single ascending dose (SAD) and multiple ascending dose (MAD) study in healthy subjects. Eligible participants were randomly assigned (1:1 for sentinel subjects and 1:5 for main group) to placebo or anle138b (dose ranging from 50 mg to 300 mg per day), respectively. In addition, the effect of food on the pharmacokinetics (PK) of anle138b in healthy subjects was examined at doses of 150 mg per day (FES, food effect study). Participants were randomized to treatment sequence (fed→fasted) or (fasted→fed). Treatment for the SAD, MAD and FES arms of the study was administered orally in hard gelatin capsules containing either 10 mg or 30 mg of anle138b with excipient (i.e., lauroyl polyoxyl-32 glycerides) or excipient only. The primary endpoints were safety and tolerability, the secondary endpoint was pharmacokinetics. Data from all randomized individuals were evaluated. [Clinicaltrials.gov-identifier: NCT04208152. EudraCT-number: 2019-004218-33] […]
# In SAD, subjects received a single dose of anle138b or placebo after fasting from all food and drink (except water) for a minimum of 8 h prior to dosing. […] The following data were analyzed: Adverse events, vital signs, safety laboratory, ECG, physical examinations, plasma concentrations of anle138b with interim PK parameter estimations (Tmax, Cmax, AUC0-24, AUC0-tau, AUC0-last and T½, where applicable). […]
# Outcome measures: The primary objective was to assess the safety and tolerability of single (SAD) and multiple (MAD) ascending doses of anle138b to healthy subjects in the fasted state and to assess the safety and tolerability of single doses of anle138b in both the fasted and fed state (FES). To this end, adverse events (AEs), clinical laboratory tests, vital signs, electrocardiograms (ECGs), QT interval corrected for heart rate using Fridericia's formula (QTcF), and physical examination findings were recorded. […]
smiles,measurement,setting,value
"Brc1cccc(-c2cc(-c3ccc4c(c3)OCO4)n[nH]2)c1 [anle138b, 3-(1,3-benzodioxol-5-yl)-5-(3-bromophenyl)-1H-pyrazole]",safety and tolerability (in words),"food effect study, 150 mg, fasted and fed conditions",safe and well tolerated
same,serious adverse events (in words),"healthy subjects, any part of the study",no serious adverse events
same,safety and tolerability (in words),"healthy subjects, up to 300 mg daily for up to 7 consecutive days",safe and well tolerated at all dose levels

# From patent US20250161273A1, “PHARMACEUTICAL COMPOSITION COMPRISING DIPHENYLDIAZOLE DERIVATIVES AND METHODS OF USE” (MODAG GMBH, priority 2022, published 2025)
